Patent US11236129B2, “IL-17A binding peptides and medical uses thereof” (Dompe' Farmaceutici S.P.A., priority 2018, dated 2022)
Residues, ends and D or L forms follow the SMILES beside them.

biological target: IL-17RA/IL17RC dimerization induced by IL-17A (Homo sapiens, UniProt Q16552); assay: IL-17RA/IL17RC dimerization assay in response to IL-17A (PathHunter Cytokine Receptor Assay); type: cell-based; settings: IL-17A at EC80; read-out: IC50 in IL-17RA/IL7RC dimerization assay
Experimental: The peptides of Table 7 were tested for their ability to inhibit the binding of IL-17A to its receptor and the subsequent interaction of IL-17RA and IL17RC.
Interleukin receptor RA and RC dimerization assay (DiscoverX) was used to measure the interaction of the receptor chains IL-17RA and IL17RC upon activation by IL-17A in the absence or presence of the peptides of Table 7.
In the PathHunter® Cytokine Receptor Assay, one cytokine receptor chain is tagged with a small peptide epitope ProLink (PK) and the other chain is tagged with Enzyme Acceptor (EA). Ligand binding induces dimerization of the two receptors, facilitating complementation of PK and EA fragments. This interaction generates an active unit of b-galactosidase, which is detected using a chemiluminescent substrate. PathHunter cell lines were expanded from freezer stocks according to standard procedures. Cells were seeded in a total volume of 20 μL into white walled, 384-well microplates and incubated for the appropriate time prior to testing. For agonist activity inhibition, cells were incubated with sample to induce response. Intermediate dilution of sample stocks was performed to generate 5× sample in assay buffer. 5 μL of 5× sample was added to cells and incubated at 37° C. or room temperature for 60 minutes. Vehicle concentration was 1%. 5 μL of 6×EC80 agonist (IL-17A) in assay buffer was added to the cells and incubated at 37° C. for 6 to 16 hours depending on the assay. 1. […] For some assays, activity was detected using a high sensitivity detection reagent (PathHunter Flash Kit) to improve assay performance. In these assays, an equal volume of detection reagent (25 or 30 uL) was added to the wells, followed by a one hour incubation at room temperature. Microplates were read following signal generation with a PerkinElmer Envision™ instrument for chemiluminescent signal detection. Compound activity was analyzed using CBIS data analysis suite (ChemInnovation, CA). % Inhibition=100%×(1−(mean RLU of test sample−mean RLU of vehicle control)/(mean RLU of EC80 control−mean RLU of vehicle control)).

IL-17RA/IL17RC dimerization induced by IL-17A, sequence (Q16552 24-155): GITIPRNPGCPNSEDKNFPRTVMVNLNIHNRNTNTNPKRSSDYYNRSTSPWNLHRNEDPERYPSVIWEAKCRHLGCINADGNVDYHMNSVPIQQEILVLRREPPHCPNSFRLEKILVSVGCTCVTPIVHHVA

Row | IC50 [µM] | SMILES
1 | < 10 | CC[C@H](C)[C@H](NC(C)=O)C(=O)N[C@@H](Cc1c[nH]cn1)C(=O)N[C@H](C(=O)N[C@H](C(=O)N[C@H](C(=O)N1CCC[C@H]1C(=O)N[C@@H](C)C(=O)N[C@@H](CC(=O)O)C(=O)N[C@@H](CC(C)C)C(=O)N[C@@H](Cc1c[nH]c2ccccc12)C(=O)N[C@@H](CC(=O)O)C(=O)N[C@@H](Cc1c[nH]c2ccccc12)C(=O)N[C@@H](CC(C)C)C(=O)N[C@@H](CC(N)=O)C(=O)N[C@@H](CCCCN)C(N)=O)[C@@H](C)CC)[C@@H](C)O)C(C)C [SEQ ID NO: 216] (Ac-IHVTIPADLWDWLNK-NH2)
2 | < 10 | CC[C@H](C)[C@H](NC(C)=O)C(=O)N[C@@H](CCCNC(=N)N)C(=O)N[C@H](C(=O)N[C@H](C(=O)N[C@H](C(=O)N1CCC[C@H]1C(=O)N[C@@H](C)C(=O)N[C@@H](CC(=O)O)C(=O)N[C@@H](CC(C)C)C(=O)N[C@@H](Cc1c[nH]c2ccccc12)C(=O)N[C@@H](CC(=O)O)C(=O)N[C@@H](Cc1c[nH]c2ccccc12)C(=O)N[C@H](C(=O)N[C@@H](CC(N)=O)C(=O)N[C@@H](CCCCN)C(N)=O)[C@@H](C)CC)[C@@H](C)CC)[C@@H](C)O)C(C)C [SEQ ID NO: 162] (Ac-IRVTIPADLWDWINK-NH2)
3 | < 1 | CC[C@H](C)[C@H](NC(=O)[C@H](Cc1c[nH]c2ccccc12)NC(=O)[C@H](CCC(=O)O)NC(=O)[C@H](Cc1ccc(O)cc1)NC(=O)[C@H](CC(C)C)NC(=O)[C@H](CC(=O)O)NC(=O)[C@H](C)NC(=O)[C@@H]1CCCN1C(=O)[C@@H](NC(=O)[C@@H](NC(=O)[C@@H](NC(=O)[C@H](CCSC)NC(=O)[C@@H](NC(=O)[C@@H](C)O[C@H]1[C@H](O[C@@H]2O[C@H](CO)[C@@H](O)[C@H](O)[C@H]2NC(C)=O)[C@@H](CO)OC(O)[C@@H]1NC(C)=O)[C@@H](C)CC)C(C)C)[C@@H](C)O)[C@@H](C)CC)C(=O)N[C@@H](CCC(=O)O)C(=O)N[C@@H](CCC(=O)O)C(N)=O (some centres unmarked) [BIO-3]
4 | < 0.5 | CC(=O)N[C@H](C(=O)N[C@@H](Cc1c[nH]cn1)C(=O)N[C@@H](Cc1ccccc1)C(=O)N[C@@H](CCC(N)=O)C(=O)N[C@@H](Cc1ccccc1)C(=O)N1CCC[C@H]1C(=O)N[C@@H](CCC(N)=O)C(=O)N[C@@H](CCC(=O)O)C(=O)N[C@@H](Cc1c[nH]c2ccccc12)C(=O)N[C@@H](Cc1ccc(O)cc1)C(=O)N[C@@H](CC(N)=O)C(=O)N[C@@H](Cc1c[nH]c2ccccc12)C(=O)N[C@@H](Cc1ccccc1)C(=O)N[C@@H](CCCNC(=N)N)C(=O)N[C@@H](CCCNC(=N)N)C(N)=O)C(C)C [SEQ ID NO: 154] (Ac-VHFQFPQEWYNWFRR-NH2)
5 | < 0.5 | CC(=O)N[C@H](C(=O)N[C@@H](Cc1c[nH]cn1)C(=O)N[C@@H](Cc1ccccc1)C(=O)N[C@@H](CCC(N)=O)C(=O)N[C@@H](Cc1ccccc1)C(=O)N1CCC[C@H]1C(=O)N[C@@H](CCC(N)=O)C(=O)N[C@@H](CC(=O)O)C(=O)N[C@@H](Cc1c[nH]c2ccccc12)C(=O)N[C@@H](Cc1c[nH]c2ccccc12)C(=O)N[C@@H](CCC(=O)O)C(=O)N[C@@H](Cc1c[nH]c2ccccc12)C(=O)N[C@H](C(=O)N[C@@H](CCCNC(=N)N)C(=O)N[C@@H](CCCNC(=N)N)C(N)=O)C(C)C)C(C)C [SEQ ID NO: 136] (Ac-VHFQFPQDWWEWVRR-NH2)
6 | < 10 | CC[C@H](C)[C@H](NC(C)=O)C(=O)N[C@@H](Cc1c[nH]cn1)C(=O)N[C@@H](C)C(=O)N[C@H](C(=O)N[C@H](C(=O)N1CCC[C@H]1C(=O)N[C@@H](C)C(=O)N[C@@H](CC(=O)O)C(=O)N[C@@H](CC(C)C)C(=O)N[C@@H](Cc1c[nH]c2ccccc12)C(=O)N[C@@H](CC(=O)O)C(=O)N[C@@H](Cc1c[nH]c2ccccc12)C(=O)N[C@H](C(=O)N[C@@H](CC(N)=O)C(=O)N[C@@H](CCCCN)C(N)=O)[C@@H](C)CC)[C@@H](C)CC)[C@@H](C)O [SEQ ID NO: 167] (Ac-IHATIPADLWDWINK-NH2)
7 | < 10 | CC[C@H](C)[C@H](NC(C)=O)C(=O)N[C@@H](Cc1ccc(O)cc1)C(=O)N[C@H](C(=O)N[C@H](C(=O)N[C@H](C(=O)N1CCC[C@H]1C(=O)N[C@@H](C)C(=O)N[C@@H](CC(=O)O)C(=O)N[C@@H](CC(C)C)C(=O)N[C@@H](Cc1c[nH]c2ccccc12)C(=O)N[C@@H](CC(=O)O)C(=O)N[C@@H](Cc1c[nH]c2ccccc12)C(=O)N[C@H](C(=O)N[C@@H](CC(N)=O)C(=O)N[C@@H](CCCCN)C(N)=O)[C@@H](C)CC)[C@@H](C)CC)[C@@H](C)O)C(C)C [SEQ ID NO: 166] (Ac-IYVTIPADLWDWINK-NH2)
8 | < 10 | CC(=O)N[C@H](C(=O)N[C@@H](Cc1c[nH]cn1)C(=O)N[C@H](C(=O)N[C@H](C(=O)N[C@H](C(=O)N1CCC[C@H]1C(=O)N[C@@H](CCC(N)=O)C(=O)N[C@@H](CCC(=O)O)C(=O)N[C@@H](CC(C)C)C(=O)N[C@@H](Cc1c[nH]c2ccccc12)C(=O)N[C@@H](CCC(=O)O)C(=O)N[C@@H](Cc1c[nH]c2ccccc12)C(=O)N[C@H](C(=O)N[C@@H](CCC(=O)O)C(=O)N[C@@H](CCC(=O)O)C(N)=O)C(C)C)C(C)C)[C@@H](C)O)C(C)C)C(C)C [SEQ ID NO: 227] (Ac-VHVTVPQELWEWVEE-NH2)
9 | < 10 | CC[C@H](C)[C@H](NC(=O)[C@@H](NC(=O)[C@@H](NC(=O)[C@H](CCCNC(=N)N)NC(=O)[C@@H](NC(C)=O)C(C)C)C(C)C)[C@@H](C)O)C(=O)N1CCC[C@H]1C(=O)N[C@@H](CCC(N)=O)C(=O)N[C@@H](CCC(=O)O)C(=O)N[C@@H](CC(C)C)C(=O)N[C@@H](Cc1c[nH]c2ccccc12)C(=O)N[C@@H](CCC(=O)O)C(=O)N[C@@H](Cc1c[nH]c2ccccc12)C(=O)N[C@H](C(=O)N[C@@H](CCCNC(=N)N)C(=O)N[C@@H](CCCNC(=N)N)C(N)=O)C(C)C [SEQ ID NO: 233] (Ac-VRVTIPQELWEWVRR-NH2)
10 | < 10 | CC[C@H](C)[C@H](NC(C)=O)C(=O)N[C@@H](Cc1c[nH]cn1)C(=O)N[C@H](C(=O)N[C@H](C(=O)N[C@H](C(=O)NCC(=O)N[C@@H](C)C(=O)N[C@@H](CC(=O)O)C(=O)N[C@@H](CC(C)C)C(=O)N[C@@H](Cc1c[nH]c2ccccc12)C(=O)N[C@@H](CC(=O)O)C(=O)N[C@@H](Cc1c[nH]c2ccccc12)C(=O)N[C@H](C(=O)N[C@@H](CC(N)=O)C(=O)N[C@@H](CCCCN)C(N)=O)[C@@H](C)CC)[C@@H](C)CC)[C@@H](C)O)C(C)C [SEQ ID NO: 187] (Ac-IHVTIGADLWDWINK-NH2)
11 | < 10 | CC[C@H](C)[C@H](NC(C)=O)C(=O)N[C@@H](Cc1c[nH]cn1)C(=O)N[C@H](C(=O)N[C@H](C(=O)N[C@H](C(=O)N1CCC[C@H]1C(=O)N[C@@H](C)C(=O)N[C@@H](CC(=O)O)C(=O)N[C@@H](CC(C)C)C(=O)N[C@@H](Cc1c[nH]c2ccccc12)C(=O)N[C@@H](CC(=O)O)C(=O)N[C@@H](Cc1c[nH]c2ccccc12)C(=O)N[C@@H](CCCCN)C(=O)N[C@@H](CC(N)=O)C(=O)N[C@@H](CCCCN)C(N)=O)[C@@H](C)CC)[C@@H](C)O)C(C)C [SEQ ID NO: 213] (Ac-IHVTIPADLWDWKNK-NH2)
12 | < 10 | CC[C@H](C)[C@H](NC(C)=O)C(=O)N[C@@H](Cc1c[nH]cn1)C(=O)N[C@H](C(=O)N[C@H](C(=O)N[C@H](C(=O)N1CCC[C@H]1C(=O)N[C@@H](C)C(=O)N[C@@H](CC(=O)O)C(=O)N[C@@H](CC(C)C)C(=O)N[C@@H](Cc1c[nH]cn1)C(=O)N[C@@H](CC(=O)O)C(=O)N[C@@H](Cc1c[nH]c2ccccc12)C(=O)N[C@H](C(=O)N[C@@H](CC(N)=O)C(=O)N[C@@H](CCCCN)C(N)=O)[C@@H](C)CC)[C@@H](C)CC)[C@@H](C)O)C(C)C [SEQ ID NO: 206] (Ac-IHVTIPADLHDWINK-NH2)
13 | < 0.5 | CC[C@H](C)[C@H](NC(=O)[C@@H](NC(=O)[C@H](Cc1ccccc1)NC(=O)[C@H](Cc1c[nH]cn1)NC(=O)[C@@H](NC(C)=O)C(C)C)[C@@H](C)O)C(=O)N1CCC[C@H]1C(=O)N[C@@H](CCC(N)=O)C(=O)N[C@@H](CC(=O)O)C(=O)N[C@@H](CC(C)C)C(=O)N[C@@H](Cc1ccc(O)cc1)C(=O)N[C@@H](CCC(=O)O)C(=O)N[C@@H](Cc1c[nH]c2ccccc12)C(=O)N[C@H](C(=O)N[C@@H](CCCNC(=N)N)C(=O)N[C@@H](CCCNC(=N)N)C(N)=O)C(C)C [SEQ ID NO: 126] (Ac-VHFTIPQDLYEWVRR-NH2)
14 | < 0.5 | CC[C@H](C)[C@H](NC(=O)[C@H](CCC(N)=O)NC(=O)[C@@H](NC(=O)[C@H](Cc1c[nH]cn1)NC(=O)[C@@H](NC(C)=O)C(C)C)C(C)C)C(=O)N1CCC[C@H]1C(=O)N[C@@H](C)C(=O)N[C@@H](CC(=O)O)C(=O)N[C@@H](Cc1ccccc1)C(=O)N[C@@H](Cc1c[nH]c2ccccc12)C(=O)N[C@@H](CCC(=O)O)C(=O)N[C@@H](Cc1c[nH]c2ccccc12)C(=O)N[C@@H](Cc1ccccc1)C(=O)N[C@@H](CCCNC(=N)N)C(=O)N[C@@H](CCCNC(=N)N)C(N)=O [SEQ ID NO: 143] (Ac-VHVQIPADFWEWFRR-NH2)
